Molecular target: T1, bacterial NAD synthetase enzyme (Bacillus subtilis, UniProt P08164)
T1 sequence (P08164 2-272 limits assumed): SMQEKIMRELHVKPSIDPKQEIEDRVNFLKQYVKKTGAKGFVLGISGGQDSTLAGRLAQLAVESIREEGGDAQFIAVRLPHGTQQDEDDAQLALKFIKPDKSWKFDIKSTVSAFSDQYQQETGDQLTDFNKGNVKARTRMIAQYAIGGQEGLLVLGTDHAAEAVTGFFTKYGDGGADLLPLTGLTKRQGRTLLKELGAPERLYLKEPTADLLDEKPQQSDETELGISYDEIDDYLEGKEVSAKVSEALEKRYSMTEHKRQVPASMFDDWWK
Experiment: biochemical
Format: biochemical

[1] = compound at 0.2 mM (Table 312A)

| SMILES | % Inhibition [1] [%] | other results |
| --- | --- | --- |
| O=[N+]([O-])c1ccc2c(ccn2CCCCCCCC[n+]2ccccc2)c1 [Compound 6] | 5.67 |  |
| O=C(O)/C=C/c1cn(CCCC[n+]2cccc3ccccc32)c2ccccc12 [Compound 154] |  | % Inhibition (compound at 0.1 mM (Table 314)): 9.24% |
| COC(=O)C=Cc1cn(CCCCC[n+]2cccc(C(=O)OC)c2)c2ccccc12 [Compound 268] | 11.23 |  |
| c1cc[n+](CCCCCCCCc2cc3ccccc3[nH]2)cc1 [Compound 287] | 16.01 |  |
| FC(F)(F)c1ccc2cc(CCCC[n+]3ccccc3)[nH]c2c1 [Compound 289] | 9.28 |  |
| FC(F)(F)c1ccc2cc(CCCCC[n+]3ccccc3)[nH]c2c1 [Compound 290] |  | % Inhibition (compound at 0.1 mM (Table 314)): 12.89% |
| FC(F)(F)c1ccc2cc(CCCCCCC[n+]3ccccc3)[nH]c2c1 [Compound 292] | 44.36 |  |
| FC(F)(F)c1ccc2cc(CCCCCCCC[n+]3ccccc3)[nH]c2c1 [Compound 293] | 87.66 |  |
| Cc1ccc2[nH]c(CCCCCCCC[n+]3ccccc3)cc2c1 [Compound 299] | 49.13 |  |
| Fc1cc(F)c2[nH]c(CCCC[n+]3ccccc3)cc2c1 [Compound 301] | 6.12 |  |
| Fc1cc(F)c2[nH]c(CCCCC[n+]3ccccc3)cc2c1 [Compound 302] | 21.48 |  |
| Fc1cc(F)c2[nH]c(CCCCCCC[n+]3ccccc3)cc2c1 [Compound 304] |  | % Inhibition (compound at 0.1 mM (Table 314)): 29.48% |
| Fc1cc(F)c2[nH]c(CCCCCCCC[n+]3ccccc3)cc2c1 [Compound 305] | 54.83 |  |
| O=[N+]([O-])c1cc([N+](=O)[O-])c2[nH]c(CCCC[n+]3ccccc3)cc2c1 [Compound 307] | 4.40 |  |
| O=[N+]([O-])c1cc([N+](=O)[O-])c2[nH]c(CCCCC[n+]3ccccc3)cc2c1 [Compound 308] | 33.71 |  |
| O=[N+]([O-])c1cc([N+](=O)[O-])c2[nH]c(CCCCCCC[n+]3ccccc3)cc2c1 [Compound 310] | 38.29 |  |
| O=[N+]([O-])c1cc([N+](=O)[O-])c2[nH]c(CCCCCCCC[n+]3ccccc3)cc2c1 [Compound 311] | 29.67 |  |
| CCCCc1ccc2[nH]c(CCCC[n+]3ccccc3)cc2c1 [Compound 313] |  | % Inhibition (compound at 0.1 mM (Table 314)): 27.37% |
| CCCCc1ccc2[nH]c(CCCCC[n+]3ccccc3)cc2c1 [Compound 314] |  | % Inhibition (compound at 0.1 mM (Table 314)): 9.19% |
| CCCCc1ccc2[nH]c(CCCCCCCC[n+]3ccccc3)cc2c1 [Compound 317] |  | % Inhibition (compound at 0.1 mM (Table 314)): 25.04% |
| CC(C)c1ccc2[nH]c(CCCC[n+]3ccccc3)cc2c1 [Compound 319] |  | % Inhibition (compound at 0.1 mM (Table 314)): 16.99% |
| CC(C)c1ccc2[nH]c(CCCCC[n+]3ccccc3)cc2c1 [Compound 320] |  | % Inhibition (compound at 0.1 mM (Table 314)): 44.72% |
| CC(C)c1ccc2[nH]c(CCCCCCC[n+]3ccccc3)cc2c1 [Compound 322] | 14.40 |  |
| CC(C)c1ccc2[nH]c(CCCCCCCC[n+]3ccccc3)cc2c1 [Compound 323] | 28.08 |  |
| c1ccc(-c2ccc3[nH]c(CCC[n+]4ccccc4)cc3c2)cc1 [Compound 324] | 34.99 |  |
| c1ccc(-c2ccc3[nH]c(CCCC[n+]4ccccc4)cc3c2)cc1 [Compound 325] |  | % Inhibition (compound at 0.1 mM (Table 314)): 53.22% |

| SMILES | % Inhibition [1] [%] | other results |
| --- | --- | --- |
| c1ccc(-c2ccc3[nH]c(CCCCCCC[n+]4ccccc4)cc3c2)cc1 [Compound 328] |  | % Inhibition (compound at 0.1 mM (Table 314)): 47.85% |
| c1ccc(-c2ccc3[nH]c(CCCCCCCC[n+]4ccccc4)cc3c2)cc1 [Compound 329] | 30.77 |  |
| O=[N+]([O-])c1ccc2[nH]c(CCC[n+]3ccccc3)cc2c1 [Compound 330] | 23.96 |  |
| O=[N+]([O-])c1ccc2[nH]c(CCCCC[n+]3ccccc3)cc2c1 [Compound 332] |  | % Inhibition (compound at 0.1 mM (Table 314)): 12.27% |
| O=[N+]([O-])c1ccc2[nH]c(CCCCCCC[n+]3ccccc3)cc2c1 [Compound 334] | 41.67 |  |
| O=[N+]([O-])c1ccc2[nH]c(CCCCCCCC[n+]3ccccc3)cc2c1 [Compound 335] | 3.28 |  |
| c1ccc(C(c2ccccc2)(c2ccccc2)c2ccc3[nH]c(CCC[n+]4ccccc4)cc3c2)cc1 [Compound 336] |  | % Inhibition (compound at 0.1 mM (Table 314)): 18.02% |
| c1ccc(C(c2ccccc2)(c2ccccc2)c2ccc3[nH]c(CCCC[n+]4ccccc4)cc3c2)cc1 [Compound 337] |  | % Inhibition (compound at 0.1 mM (Table 314)): 35.94% |
| Fc1ccc2[nH]c(CCCC[n+]3ccccc3)cc2c1 [Compound 343] | 10.82 |  |
| Fc1ccc2[nH]c(CCCCCCC[n+]3ccccc3)cc2c1 [Compound 346] |  | % Inhibition (compound at 0.1 mM (Table 314)): 42.57% |
| c1ccc(Oc2ccc3[nH]c(CCC[n+]4ccccc4)cc3c2)cc1 [Compound 348] | 44.42 |  |
| c1ccc(Oc2ccc3[nH]c(CCCC[n+]4ccccc4)cc3c2)cc1 [Compound 349] |  | IC50: 75 µM; inhibition at 100 µM: 86.6% |
| c1ccc(Oc2ccc3[nH]c(CCCCCCC[n+]4ccccc4)cc3c2)cc1 [Compound 352] |  | % Inhibition (compound at 0.1 mM (Table 314)): 32.69% |
| O=C(c1ccccc1)c1ccc2[nH]c(CCC[n+]3ccccc3)cc2c1 [Compound 354] | 2.96 |  |
| O=C(c1ccccc1)c1ccc2[nH]c(CCCCCCC[n+]3ccccc3)cc2c1 [Compound 358] | 23.19 |  |
| FC(F)(F)c1ccc2[nH]c(CCC[n+]3ccccc3)cc2c1 [Compound 360] | 3.46 |  |
| FC(F)(F)c1ccc2[nH]c(CCCCCCCC[n+]3ccccc3)cc2c1 [Compound 365] | 16.45 |  |
| CC(=O)c1ccc2[nH]c(CCCCCCC[n+]3ccccc3)cc2c1 [Compound 370] | 41.34 |  |
| CC(=O)c1ccc2[nH]c(CCCCCCCC[n+]3ccccc3)cc2c1 [Compound 371] | 43.85 |  |
| COc1ccc2[nH]c(CCCCCCC[n+]3ccccc3)cc2c1 [Compound 376] |  | % Inhibition (compound at 0.1 mM (Table 314)): 37.32% |
| COc1ccc2[nH]c(CCCCCCCC[n+]3ccccc3)cc2c1 [Compound 377] | 30.12 |  |
| COC(=O)c1ccc2[nH]c(CCCC[n+]3ccccc3)cc2c1 [Compound 379] | 6.27 |  |
| COC(=O)c1ccc2[nH]c(CCCCCCCC[n+]3ccccc3)cc2c1 [Compound 383] | 2.76 |  |
| O=C(O)c1ccc2[nH]c(CCC[n+]3ccccc3)cc2c1 [Compound 384] | 4.10 |  |
| O=C(O)c1ccc2[nH]c(CCCC[n+]3ccccc3)cc2c1 [Compound 385] | 61.62 |  |
| O=C(O)c1ccc2[nH]c(CCCCCCC[n+]3ccccc3)cc2c1 [Compound 388] | 25.86 |  |

| SMILES | % Inhibition [1] [%] | other results |
| --- | --- | --- |
| O=C(O)c1ccc2[nH]c(CCCCCCCC[n+]3ccccc3)cc2c1 [Compound 389] | 12.44 |  |
| c1ccc2[nH]c(CCCCCCCC[n+]3cccc4ccccc43)cc2c1 [Compound 395] |  | % Inhibition (compound at 0.1 mM (Table 314)): 20.85% |
| FC(F)(F)c1ccc2cc(CCCCCC[n+]3cccc4ccccc43)[nH]c2c1 [Compound 399] | 15.22 |  |
| FC(F)(F)c1ccc2cc(CCCCCCCC[n+]3cccc4ccccc43)[nH]c2c1 [Compound 401] | 14.26 |  |
| Cc1ccc2[nH]c(CCC[n+]3cccc4ccccc43)cc2c1 [Compound 402] |  | % Inhibition (compound at 0.1 mM (Table 314)): 4.71% |
| Cc1ccc2[nH]c(CCCCCCCC[n+]3cccc4ccccc43)cc2c1 [Compound 407] | 24.14 |  |
| Fc1cc(F)c2[nH]c(CCCCC[n+]3cccc4ccccc43)cc2c1 [Compound 410] | 8.77 |  |
| Fc1cc(F)c2[nH]c(CCCCCCCC[n+]3cccc4ccccc43)cc2c1 [Compound 413] | 4.76 |  |
| O=[N+]([O-])c1cc([N+](=O)[O-])c2[nH]c(CCC[n+]3cccc4ccccc43)cc2c1 [Compound 414] | 6.91 |  |
| O=[N+]([O-])c1cc([N+](=O)[O-])c2[nH]c(CCCCCCC[n+]3cccc4ccccc43)cc2c1 [Compound 418] | 5.95 |  |
| O=[N+]([O-])c1cc([N+](=O)[O-])c2[nH]c(CCCCCCCC[n+]3cccc4ccccc43)cc2c1 [Compound 419] | 24.28 |  |
| CCCCc1ccc2[nH]c(CCC[n+]3cccc4ccccc43)cc2c1 [Compound 420] | 9.16 |  |
| CCCCc1ccc2[nH]c(CCCC[n+]3cccc4ccccc43)cc2c1 [Compound 421] | 1.86 |  |
| CCCCc1ccc2[nH]c(CCCCCCCC[n+]3cccc4ccccc43)cc2c1 [Compound 425] | 19.12 |  |
| CC(C)c1ccc2[nH]c(CCCCCCC[n+]3cccc4ccccc43)cc2c1 [Compound 430] | 1.20 |  |
| c1ccc(-c2ccc3[nH]c(CCCCCC[n+]4cccc5ccccc54)cc3c2)cc1 [Compound 435] | 17.24 |  |
| c1ccc(-c2ccc3[nH]c(CCCCCCC[n+]4cccc5ccccc54)cc3c2)cc1 [Compound 436] | 11.57 |  |
| O=[N+]([O-])c1ccc2[nH]c(CCCCCC[n+]3cccc4ccccc43)cc2c1 [Compound 441] | 11.80 |  |
| c1ccc(C(c2ccccc2)(c2ccccc2)c2ccc3[nH]c(CCCCCC[n+]4cccc5ccccc54)cc3c2)cc1 [Compound 447] | 2.30 |  |
| c1ccc(C(c2ccccc2)(c2ccccc2)c2ccc3[nH]c(CCCCCCC[n+]4cccc5ccccc54)cc3c2)cc1 [Compound 448] | 2.92 |  |
| Fc1ccc2[nH]c(CCCCCCC[n+]3cccc4ccccc43)cc2c1 [Compound 454] | 7.95 |  |
| c1ccc(Oc2ccc3[nH]c(CCCCCCC[n+]4cccc5ccccc54)cc3c2)cc1 [Compound 460] | 4.17 |  |
| O=C(c1ccccc1)c1ccc2[nH]c(CCCCCCC[n+]3cccc4ccccc43)cc2c1 [Compound 466] | 5.79 |  |
| O=C(c1ccccc1)c1ccc2[nH]c(CCCCCCCC[n+]3cccc4ccccc43)cc2c1 [Compound 467] | 15.08 |  |
| FC(F)(F)c1ccc2[nH]c(CCCCCCC[n+]3cccc4ccccc43)cc2c1 [Compound 472] |  | % Inhibition (compound at 0.1 mM (Table 314)): 12.76% |
| FC(F)(F)c1ccc2[nH]c(CCCCCCCC[n+]3cccc4ccccc43)cc2c1 [Compound 473] | 15.06 |  |

Source: patent US6727237B2, “Inhibitors of bacterial NAD synthetase” (priority 1998, dated 2004)
